Test system: human ventricular trabeculae
Test: Action potential recording and pro-arrhythmic score analysis in human ventricular trabeculae (hVT);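 note: sharp microelectrode action potential recordings at 37°C in Tyrode-perfused trabeculae, 4 cumulative concentrations each applied 31 min, values averaged over last 30 APs, vehicle 0.1% DMSO as control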
[1] = 1Hz, 1-FOLD free ETPC (0.009µM)
[2] = 1Hz, 11-FOLD free ETPC (0.009µM)
[3] = 1Hz, 111-FOLD free ETPC (0.009µM)
[4] = 1Hz, 1111-FOLD free ETPC (0.009µM)
[5] = 2Hz, 1-FOLD free ETPC (0.009µM)
[6] = 2Hz, 11-FOLD free ETPC (0.009µM)
[7] = 2Hz, 111-FOLD free ETPC (0.009µM)
[8] = 2Hz, 1111-FOLD free ETPC (0.009µM)

For CC(C)(C)c1ccc(C(O)CCCN2CCC(C(O)(c3ccccc3)c3ccccc3)CC2)cc1 (stereo not drawn) [TERFENADINE, Terfenadine], the AMAX [1] was 113, the “AMAX percentage change compared to vehicle control” value (shortened to “AMAX percentage change”) [1] was 1% and the APD30 [1] was 148. For the same compound, the “APD30 percentage change compared to vehicle control” value (shortened to “APD30 percentage change”) [1] was 4%, the APD50 [1] was 199 and the “APD50 percentage change compared to vehicle control” value (“APD50 percentage change” below) [1] was 3%. The APD90 [1] was 278, the “APD90 percentage change compared to vehicle control” value (from here on “APD90 percentage change”) [1] was 1% and the Alternans [1] was 0.70. For the same compound, the “Alternans percentage change compared to vehicle control” value (shortened to “Alternans percentage change”) [1] was 53%, the “Beat Escape” value [1] was 0 and the “Beat Escape percentage change compared to vehicle control” value (“Beat Escape percentage change” below) [1] was 0%. For the same compound, the EADs [1] was 0, the “EADs percentage change compared to vehicle control” value (“EADs percentage change” below) [1] was 0% and the ERP [1] was 0.45. The “ERP percentage change compared to vehicle control” value (“ERP percentage change” for short) [1] was -2%, the “Max Dispersion” value [1] was 4.48 and the “Max Dispersion percentage change compared to vehicle control” value (“Max Dispersion percentage change” for short) [1] was 60%. The RMP [1] was -89, the “RMP percentage change compared to vehicle control” value (“RMP percentage change” below) [1] was 1% and the “Refractoriness Escape” value [1] was 0. The “Refractoriness Escape percentage change compared to vehicle control” value (“Refractoriness Escape percentage change” below) [1] was 0%, the STV [1] was 0.50 and the “STV percentage change compared to vehicle control” value (from here on “STV percentage change”) [1] was 72%. For the same compound, the Triangulation [1] was 130, the “Triangulation percentage change compared to vehicle control” value (“Triangulation percentage change” for short) [1] was -2% and the AMAX [2] was 109. The “AMAX percentage change” value [2] was -1%, the APD30 [2] was 152 and the “APD30 percentage change” value [2] was 6%. For the same compound, the APD50 [2] was 203, the “APD50 percentage change” value [2] was 4% and the APD90 [2] was 286. For the same compound, the “APD90 percentage change” value [2] was 3%, the Alternans [2] was 0.62 and the “Alternans percentage change” value [2] was 35%. The “Beat Escape” value [2] was 0, the “Beat Escape percentage change” value [2] was 0% and the EADs [2] was 0. The “EADs percentage change” value [2] was 0%, the ERP [2] was 0.44 and the “ERP percentage change” value [2] was -3%. For the same compound, the “Max Dispersion” value [2] was 2.80, the “Max Dispersion percentage change” value [2] was 0% and the RMP [2] was -86. The “RMP percentage change” value [2] was -2%, the “Refractoriness Escape” value [2] was 0 and the “Refractoriness Escape percentage change” value [2] was 0%. The STV [2] was 0.45, the “STV percentage change” value [2] was 40% and the Triangulation [2] was 134. For the same compound, the “Triangulation percentage change” value [2] was 0%, the AMAX [3] was 109 and the “AMAX percentage change” value [3] was -2%. The APD30 [3] was 148, the “APD30 percentage change” value [3] was 4% and the APD50 [3] was 200. The “APD50 percentage change” value [3] was 3%, the APD90 [3] was 284 and the “APD90 percentage change” value [3] was 2%. The Alternans [3] was 0.52, the “Alternans percentage change” value [3] was 12% and the “Beat Escape” value [3] was 0. The “Beat Escape percentage change” value [3] was 0%, the EADs [3] was 0 and the “EADs percentage change” value [3] was 0%. The ERP [3] was 0.45, the “ERP percentage change” value [3] was 0% and the “Max Dispersion” value [3] was 2.43. The “Max Dispersion percentage change” value [3] was -13%, the RMP [3] was -85 and the “RMP percentage change” value [3] was -3%. For the same compound, the “Refractoriness Escape” value [3] was 0, the “Refractoriness Escape percentage change” value [3] was 0% and the STV [3] was 0.39. For the same compound, the “STV percentage change” value [3] was 30%, the Triangulation [3] was 135 and the “Triangulation percentage change” value [3] was 0%. The AMAX [4] was 110, the “AMAX percentage change” value [4] was 0% and the APD30 [4] was 140. The “APD30 percentage change” value [4] was -2%, the APD50 [4] was 192 and the “APD50 percentage change” value [4] was -2%. The APD90 [4] was 277, the “APD90 percentage change” value [4] was 0% and the Alternans [4] was 0.60. The “Alternans percentage change” value [4] was 31%, the “Beat Escape” value [4] was 0 and the “Beat Escape percentage change” value [4] was 0%. For the same compound, the EADs [4] was 0, the “EADs percentage change” value [4] was 0% and the ERP [4] was 0.46. For the same compound, the “ERP percentage change” value [4] was 2%, the “Max Dispersion” value [4] was 3.70 and the “Max Dispersion percentage change” value [4] was 32%. For the same compound, the RMP [4] was -87, the “RMP percentage change” value [4] was -1% and the “Refractoriness Escape” value [4] was 0. The “Refractoriness Escape percentage change” value [4] was 0%, the STV [4] was 0.44 and the “STV percentage change” value [4] was 56%. For the same compound, the Triangulation [4] was 137, the “Triangulation percentage change” value [4] was 2% and the AMAX [5] was 109. For the same compound, the “AMAX percentage change” value [5] was 2%, the APD30 [5] was 107 and the “APD30 percentage change” value [5] was 8%. For the same compound, the APD50 [5] was 151, the “APD50 percentage change” value [5] was 6% and the APD90 [5] was 228. The “APD90 percentage change” value [5] was 2%, the Alternans [5] was 1.31 and the “Alternans percentage change” value [5] was 24%. The “Beat Escape” value [5] was 0, the “Beat Escape percentage change” value [5] was 0% and the EADs [5] was 0. For the same compound, the “EADs percentage change” value [5] was 0%, the ERP [5] was 0.48 and the “ERP percentage change” value [5] was -3%. The “Max Dispersion” value [5] was 5.60, the “Max Dispersion percentage change” value [5] was 14% and the RMP [5] was -87. The “RMP percentage change” value [5] was 1%, the “Refractoriness Escape” value [5] was 0 and the “Refractoriness Escape percentage change” value [5] was 0%. For the same compound, the STV [5] was 0.91, the Triangulation [5] was 120 and the “Triangulation percentage change” value [5] was -2%. The AMAX [6] was 108, the “AMAX percentage change” value [6] was 2% and the APD30 [6] was 110. For the same compound, the “APD30 percentage change” value [6] was 11%, the APD50 [6] was 153 and the “APD50 percentage change” value [6] was 7%. For the same compound, the APD90 [6] was 231, the “APD90 percentage change” value [6] was 4% and the Alternans [6] was 0.97. For the same compound, the “Alternans percentage change” value [6] was -8%, the “Beat Escape” value [6] was 0 and the “Beat Escape percentage change” value [6] was 0%. For the same compound, the EADs [6] was 0, the “EADs percentage change” value [6] was 0% and the ERP [6] was 0.47. For the same compound, the “ERP percentage change” value [6] was -6%, the “Max Dispersion” value [6] was 4.40 and the “Max Dispersion percentage change” value [6] was -11%. For the same compound, the RMP [6] was -86, the “RMP percentage change” value [6] was -1% and the “Refractoriness Escape” value [6] was 0. The “Refractoriness Escape percentage change” value [6] was 0%, the STV [6] was 0.66 and the Triangulation [6] was 121. For the same compound, the “Triangulation percentage change” value [6] was -2%, the AMAX [7] was 109 and the “AMAX percentage change” value [7] was 2%. For the same compound, the APD30 [7] was 108, the “APD30 percentage change” value [7] was 10% and the APD50 [7] was 154. For the same compound, the “APD50 percentage change” value [7] was 7%, the APD90 [7] was 234 and the “APD90 percentage change” value [7] was 4%. For the same compound, the Alternans [7] was 1.28, the “Alternans percentage change” value [7] was 21% and the “Beat Escape” value [7] was 0. The “Beat Escape percentage change” value [7] was 0%, the EADs [7] was 0 and the “EADs percentage change” value [7] was 0%. For the same compound, the ERP [7] was 0.48, the “ERP percentage change” value [7] was -2% and the “Max Dispersion” value [7] was 5.53. For the same compound, the “Max Dispersion percentage change” value [7] was 12%, the RMP [7] was -85 and the “RMP percentage change” value [7] was -2%. The “Refractoriness Escape” value [7] was 0, the “Refractoriness Escape percentage change” value [7] was 0% and the STV [7] was 0.89. For the same compound, the Triangulation [7] was 126, the “Triangulation percentage change” value [7] was 0% and the AMAX [8] was 108. For the same compound, the “AMAX percentage change” value [8] was 2%, the APD30 [8] was 105 and the “APD30 percentage change” value [8] was 5%. The APD50 [8] was 150, the “APD50 percentage change” value [8] was 4% and the APD90 [8] was 233. For the same compound, the “APD90 percentage change” value [8] was 3%, the Alternans [8] was 0.96 and the “Alternans percentage change” value [8] was -10%. The “Beat Escape” value [8] was 0, the “Beat Escape percentage change” value [8] was 0% and the EADs [8] was 0. The “EADs percentage change” value [8] was 0%, the ERP [8] was 0.48 and the “ERP percentage change” value [8] was -3%. For the same compound, the “Max Dispersion” value [8] was 3.10, the “Max Dispersion percentage change” value [8] was -37% and the RMP [8] was -85. The “RMP percentage change” value [8] was -2%, the “Refractoriness Escape” value [8] was 0 and the “Refractoriness Escape percentage change” value [8] was 0%. The STV [8] was 0.71, the Triangulation [8] was 128 and the “Triangulation percentage change” value [8] was 3%.

Reference: paper PMC5760531, “Action Potential Recording and Pro-arrhythmia Risk Analysis in Human Ventricular Trabeculae” (Frontiers in Physiology, 2018)
